# In patent US9433214B2, “Active compounds combination containing fluopyram Bacillus and biologically control agent” (BAYER INTELLECTUAL PROPERTY GMBH, priority 2012, dated 2016):
# Tested on: Meloidogyne incognita
# Experiment: Meloidogyne incognita test (MELGIN): gall formation on salad seedlings in sand
# Assay type: in vivo
# Conditions: 504 h, eggs and larvae of Meloidogyne incognita, salad seeds in sand, 100% = no galls, read-out: Mortality in % after 21 d
# Experimental: Meloidogyne incognita—Test (MELGIN)
# Solvent: 125.0 parts by weight of acetone
# To produce a suitable preparation of active compound, 1 part by weight of active compound is mixed with the stated amount of solvent, and the concentrate is diluted with water to the desired concentration. The preparation of the bacteria, fungi or yeast products contains 10^9-10^10 spores/g or cells/g. To produce a suitable preparation of a biological suspension the cells or spores are diluted with emulsifier-containing water to the desired concentration.
# Vessels are filled with sand, a solution of the active ingredient, a suspension containing eggs and larvae of Meloidogyne incognita and salad seeds. The salad seeds germinate and the seedlings grow. Galls develop in the roots.
# After the specified period of time the nematicidal activity is determined on the basis of the percentage of gall formation. When Meloidogyne incognita attacks roots of plants, it deforms the normal root cells and establishes giant cells and consequently the attacked roots form galls. 100% means that no galls were found; 0% means that the number of galls found on the roots of the treated plants was equal to that in untreated control plants.
smiles,measurement,value
O=C(NCCc1ncc(C(F)(F)F)cc1Cl)c1ccccc1C(F)(F)F [Fluopyram],gall reduction efficacy at 0.0005 ppm,0%
